Here are results for 11 molecules from ChEMBL document CHEMBL1135430, “Synthesis of 3,4-dihydro-2H-1,2,4-benzo-thiadiazine 1,1-dioxide derivatives as potential allosteric modulators of AMPA/kainate receptors” (2002).

The species entered for this assay is Rattus norvegicus. The experiment in a line: Variation of kainate-activated (KA) currents in primary cultures of cerebellar granule neurons at 1 mM using patch-clamp technique. The class given is functional. (In general: In patch-clamp work, channel activity is measured electrically.)
As for `CN(C)c1ccc(C2Nc3ccccc3S(=O)(=O)N2)cc1` (stereo unspecified), the Variation is -1%. On to `O=S1(=O)NC(c2ccc(O)cc2)Nc2ccc(Cl)cc21` (stereo unspecified), for which the Variation is -51%. The same measure for `O=S1(=O)NC(CCl)Nc2ccccc21` (stereo unspecified): -22%; for `O=S1(=O)NC(C(F)(F)F)Nc2ccccc21` (stereo unspecified): 70%. For `O=S1(=O)NC(c2ccccc2)Nc2ccccc21` (stereo unspecified), the Variation was -34%. On to `O=S1(=O)NC(CCl)Nc2ccc(Cl)cc21` (stereo unspecified), for which the Variation is listed as -26%. Regarding `O=S1(=O)NC(c2ccc(O)cc2)Nc2ccccc21` (stereo unspecified), the Variation was -60%. For the molecule `CC1Nc2ccc(Cl)cc2S(=O)(=O)N1` (stereo unspecified), the Variation amounted to 115%. As to `CN(C)c1ccc(C2Nc3ccc(Cl)cc3S(=O)(=O)N2)cc1` (stereo unspecified), the Variation is -1%. As to `O=S1(=O)NC(C(F)(F)F)Nc2ccc(Cl)cc21` (stereo unspecified), the Variation was determined as 72%. The same measure for `NS(=O)(=O)c1cc2c(cc1Cl)NC(C1CC3C=CC1C3)NS2(=O)=O` (stereo unspecified) [CYCLOTHIAZIDE]: 111%.
